Source: ChEMBL document CHEMBL1201861, “Genomics of Drug Sensitity in Cancer screening data, Wellcome Trust Sanger Institute”

Legend:
[1] = tested on: CPC-N; assay: cells; type: functional, cell-based, Homo sapiens; settings: Homo sapiens, CPC-N;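 also: growth inhibition of CPC-N cells, with a cell viability assay as the readout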
Description: SANGER: Inhibition of human CPC-N cell growth in a cell viability assay.

[2] = tested on: D-336MG; assay: cells; type: functional, cell-based, Homo sapiens
Description: SANGER: Inhibition of human D-336MG cell growth in a cell viability assay.

[3] = tested on: DMS-153; assay: cells; type: functional, cell-based, Homo sapiens; settings: Homo sapiens, DMS-153
Description: SANGER: Inhibition of human DMS-153 cell growth in a cell viability assay.

[4] = tested on: EB-3; assay: cells; type: functional, cell-based, Homo sapiens; settings: Homo sapiens, EB-3;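 also: human EB-3 cells, growth inhibition read out via a cell viability assay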
Description: SANGER: Inhibition of human EB-3 cell growth in a cell viability assay.

[5] = tested on: EW-22; assay: cells; type: functional, cell-based, Homo sapiens;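 also: growth inhibition of the EW-22 cell line, measured with a cell viability readout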
Description: SANGER: Inhibition of human EW-22 cell growth in a cell viability assay.

[6] = tested on: K052; assay: cells; type: functional, cell-based, Homo sapiens; settings: Homo sapiens, K052;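 also: Read-out from a cell viability assay, IC50 reflecting suppression of K052 cell growth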
Description: SANGER: Inhibition of human K052 cell growth in a cell viability assay.

[7] = tested on: MC-CAR; assay: cells; type: functional, cell-based, Homo sapiens; settings: Homo sapiens, MC-CAR;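 also: growth inhibition of the human MC-CAR cell line, read out by a cell viability assay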
Description: SANGER: Inhibition of human MC-CAR cell growth in a cell viability assay.

[8] = tested on: NCCIT; assay: SANGER: Inhibition of human NCCIT cell growth in a cell viability assay.; type: functional, cell-based; settings: Homo sapiens, NCCIT
[9] = tested on: NCI-H187; assay: cells; type: functional, cell-based, Homo sapiens; settings: Homo sapiens, NCI-H187;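 also: growth inhibition of NCI-H187 cells, read out as cell viability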
Description: SANGER: Inhibition of human NCI-H187 cell growth in a cell viability assay.

[10] = tested on: NCI-H322M; assay: cells; type: functional, cell-based, Homo sapiens; settings: Homo sapiens, NCI-H322M;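 also: cell viability assay measuring inhibition of growth of human NCI-H322M cells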
Description: SANGER: Inhibition of human NCI-H322M cell growth in a cell viability assay.

[11] = tested on: NCI-H64; assay: cells; type: functional, cell-based, Homo sapiens; settings: Homo sapiens, NCI-H64;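 also: growth inhibition of NCI-H64 cells, read out with a cell viability assay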
Description: SANGER: Inhibition of human NCI-H64 cell growth in a cell viability assay.

[12] = tested on: NCI-H719; assay: cells; type: functional, cell-based, Homo sapiens; settings: Homo sapiens, NCI-H719;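 also: growth inhibition of the cultured cell line, read out with a viability assay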
Description: SANGER: Inhibition of human NCI-H719 cell growth in a cell viability assay.

[13] = tested on: P31-FUJ; assay: cells; type: functional, cell-based, Homo sapiens; settings: Homo sapiens, P31-FUJ;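 also: growth inhibition of P31-FUJ cells, read out with a viability assay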
Description: SANGER: Inhibition of human P31-FUJ cell growth in a cell viability assay.

[14] = tested on: SK-MM-2; assay: cells; type: functional, cell-based, Homo sapiens; settings: Homo sapiens, SK-MM-2;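 also: growth inhibition of human SK-MM-2 cells, read out with a cell viability assay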
Description: SANGER: Inhibition of human SK-MM-2 cell growth in a cell viability assay.

[15] = tested on: TUR; assay: cells; type: functional, cell-based, Homo sapiens; settings: Homo sapiens, TUR;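 also: growth inhibition of human TUR cells, read out with a cell viability assay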
Description: SANGER: Inhibition of human TUR cell growth in a cell viability assay.

[16] = tested on: COR-L23; assay: cells; type: functional, cell-based, Homo sapiens;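 also: cell viability assay measuring how strongly compounds suppress growth of COR-L23 cells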
Description: SANGER: Inhibition of human COR-L23 cell growth in a cell viability assay.

[17] = tested on: CP50-MEL-B; assay: cells; type: functional, cell-based, Homo sapiens;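 also: growth inhibition of the human cell line, measured with a cell viability read-out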
Description: SANGER: Inhibition of human CP50-MEL-B cell growth in a cell viability assay.

[18] = tested on: Ca-Ski; assay: cells; type: functional, cell-based, Homo sapiens;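 also: cell viability assay measuring inhibition of Ca-Ski cell growth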
Description: SANGER: Inhibition of human Ca-Ski cell growth in a cell viability assay.

[19] = tested on: G-402; assay: cells; type: functional, cell-based, Homo sapiens
Description: SANGER: Inhibition of human G-402 cell growth in a cell viability assay.

[20] = tested on: HuO-3N1; assay: cells; type: functional, cell-based, Homo sapiens;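 also: cell viability readout used to measure how strongly compounds suppress proliferation of human HuO-3N1 cells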
Description: SANGER: Inhibition of human HuO-3N1 cell growth in a cell viability assay.

[21] = tested on: MDA-MB-157; assay: cells; type: functional, cell-based, Homo sapiens
Description: SANGER: Inhibition of human MDA-MB-157 cell growth in a cell viability assay.

[22] = tested on: MDA-MB-231; assay: cells; type: functional, cell-based, Homo sapiens
Description: SANGER: Inhibition of human MDA-MB-231 cell growth in a cell viability assay.

[23] = tested on: MFE-280; assay: cells; type: functional, cell-based, Homo sapiens;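 also: growth inhibition of MFE-280 cells, determined with a cell viability readout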
Description: SANGER: Inhibition of human MFE-280 cell growth in a cell viability assay.

[24] = tested on: NCI-H1048; assay: cells; type: functional, cell-based, Homo sapiens;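 also: growth inhibition of human NCI-H1048 cells, read out with a cell viability assay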
Description: SANGER: Inhibition of human NCI-H1048 cell growth in a cell viability assay.

[25] = tested on: NCI-H1573; assay: cells; type: functional, cell-based, Homo sapiens;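 also: growth inhibition of NCI-H1573 cells, read out with a cell viability assay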
Description: SANGER: Inhibition of human NCI-H1573 cell growth in a cell viability assay.

[26] = tested on: NCI-H1651; assay: cells; type: functional, cell-based, Homo sapiens;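 also: Read-out is a cell viability assay, with IC50 expressing inhibition of NCI-H1651 cell growth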
Description: SANGER: Inhibition of human NCI-H1651 cell growth in a cell viability assay.

[27] = tested on: NCI-H1993; assay: cells; type: functional, cell-based, Homo sapiens;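 also: growth inhibition of the cancer cell line, assessed with a cell viability assay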
Description: SANGER: Inhibition of human NCI-H1993 cell growth in a cell viability assay.

[28] = tested on: NCI-H2342; assay: cells; type: functional, cell-based, Homo sapiens;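 also: growth inhibition of the cancer cell line, determined with a cell viability assay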
Description: SANGER: Inhibition of human NCI-H2342 cell growth in a cell viability assay.

[29] = tested on: OAW-42; assay: cells; type: functional, cell-based, Homo sapiens;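 also: growth inhibition of OAW-42 cells, read out with a cell viability assay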
Description: SANGER: Inhibition of human OAW-42 cell growth in a cell viability assay.

[30] = tested on: OVCAR-8; assay: cells; type: functional, cell-based, Homo sapiens;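 also: growth inhibition of human OVCAR-8 cells, read out by a cell viability assay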
Description: SANGER: Inhibition of human OVCAR-8 cell growth in a cell viability assay.

[31] = tested on: PANC-08-13; assay: cells; type: functional, cell-based, Homo sapiens
Description: SANGER: Inhibition of human PANC-08-13 cell growth in a cell viability assay.

[32] = tested on: SF-295; assay: cells; type: functional, cell-based, Homo sapiens;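 also: growth inhibition of SF-295 cells, read out with a cell viability assay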
Description: SANGER: Inhibition of human SF295 cell growth in a cell viability assay.

[33] = tested on: SK-HEP1; assay: cells; type: functional, cell-based, Homo sapiens, SK-HEP-1;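 also: cell viability readout used to quantify reduction in proliferation of human SK-HEP-1 cells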
Description: SANGER: Inhibition of human SK-HEP-1 cell growth in a cell viability assay.

[34] = tested on: SKG-IIIa; assay: cells; type: functional, cell-based, Homo sapiens;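 also: cell growth inhibition, read out with a cell viability assay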
Description: SANGER: Inhibition of human SKG-IIIa cell growth in a cell viability assay.

[35] = tested on: SNU-387; assay: cells; type: functional, cell-based, Homo sapiens
Description: SANGER: Inhibition of human SNU-387 cell growth in a cell viability assay.

[36] = tested on: SW1783; assay: cells; type: functional, cell-based, Homo sapiens
Description: SANGER: Inhibition of human SW1783 cell growth in a cell viability assay.

[37] = tested on: SW48; assay: cells; type: functional, cell-based, Homo sapiens;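 also: growth inhibition of SW48 cells, read out with a cell viability assay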
Description: SANGER: Inhibition of human SW48 cell growth in a cell viability assay.

[38] = tested on: SW756; assay: cells; type: functional, cell-based, Homo sapiens;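 also: growth inhibition of human SW756 cells, read out with a cell viability assay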
Description: SANGER: Inhibition of human SW756 cell growth in a cell viability assay.

[39] = tested on: SiHa; assay: cells; type: functional, cell-based, Homo sapiens;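 also: Viability-based readout of growth inhibition in SiHa cells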
Description: SANGER: Inhibition of human SiHa cell growth in a cell viability assay.

[40] = tested on: T98G; assay: cells; type: functional, cell-based, Homo sapiens;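 also: growth inhibition of T98G cells, read out by a cell viability assay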
Description: SANGER: Inhibition of human T98G cell growth in a cell viability assay.

[41] = tested on: A204; assay: cells; type: functional, cell-based, Homo sapiens;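 also: growth inhibition of human A204 cells, read out with a cell viability assay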
Description: SANGER: Inhibition of human A204 cell growth in a cell viability assay.

[42] = tested on: ASPC1; assay: cells; type: functional, cell-based, Homo sapiens;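 also: growth inhibition of AsPC-1 cells, read out with a cell viability assay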
Description: SANGER: Inhibition of human AsPC-1 cell growth in a cell viability assay.

[43] = tested on: BPH-1; assay: cells; type: functional, cell-based, Homo sapiens;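 also: cell viability assay measuring growth inhibition of human BPH-1 cells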
Description: SANGER: Inhibition of human BPH-1 cell growth in a cell viability assay.

[44] = tested on: CAL-12T; assay: cells; type: functional, cell-based, Homo sapiens;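 also: growth inhibition of human CAL-12T cells, read out with a cell viability assay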
Description: SANGER: Inhibition of human CAL-12T cell growth in a cell viability assay.

[45] = tested on: U2OS; assay: cells; type: functional, cell-based, Homo sapiens, U-2-OS;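 also: growth inhibition of human U-2-OS cells, determined with a cell viability assay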
Description: SANGER: Inhibition of human U-2-OS cell growth in a cell viability assay.

[46] = tested on: UACC-893; assay: cells; type: functional, cell-based, Homo sapiens
Description: SANGER: Inhibition of human UACC-893 cell growth in a cell viability assay.

[47] = tested on: UMC-11; assay: cells; type: functional, cell-based, Homo sapiens;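 also: growth inhibition of UMC-11 cells, read out with a cell viability assay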
Description: SANGER: Inhibition of human UMC-11 cell growth in a cell viability assay.

[48] = tested on: VM-CUB-1; assay: cells; type: functional, cell-based, Homo sapiens;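 also: cell viability assay measuring growth inhibition of the human VM-CUB-1 cell line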
Description: SANGER: Inhibition of human VM-CUB-1 cell growth in a cell viability assay.

## COc1cc2ncn(-c3cc(OCc4ccccc4S(C)(=O)=O)c(C#N)s3)c2cc1OC [GSK-319347A]
[1]
  IC50: > 5 µM
[2]; Homo sapiens, D-336MG
  IC50: > 5 µM
[3]
  IC50: > 5 µM
[4]
  IC50: > 5 µM
[5]; Homo sapiens, EW-22
  IC50: > 5 µM
[6]
  IC50: > 5 µM
[7]
  IC50: > 5 µM
[8]
  IC50: > 5 µM
[9]
  IC50: > 5 µM
[10]
  IC50: > 5 µM
[11]
  IC50: > 5 µM
[12]
  IC50: > 5 µM
[13]
  IC50: > 5 µM
[14]
  IC50: > 5 µM
[15]
  IC50: > 5 µM

## CISPLATIN
[16]; cor-l23
  IC50: 5.63 µM
[17]; cp50-mel-b
  IC50: 217 µM
[18]; ca-ski
  IC50: 10.3 µM
[2]; d-336mg
  IC50: 33.9 µM
[5]; ew-22
  IC50: 2.08 µM
[19]; g-402
  IC50: 7.11 µM
[20]; huo-3n1
  IC50: 8.87 µM
[21]; mda-mb-157
  IC50: 290 µM
[22]; mda-mb-231
  IC50: 264 µM
[23]; mfe-280
  IC50: 626 µM
[24]; nci-h1048
  IC50: 9.87 µM
[25]; nci-h1573
  IC50: 112 µM
[26]; nci-h1651
  IC50: 7.06 µM
[27]; nci-h1993
  IC50: 1350 µM
[28]; nci-h2342
  IC50: 53.8 µM
[29]; oaw-42
  IC50: 8.63 µM
[30]; ovcar-8
  IC50: 19.9 µM
[31]; panc-08-13
  IC50: 22.5 µM
[32]; sf-295
  IC50: 9.34 µM
[33]; sk-hep-1
  IC50: 28.9 µM
[34]; skg-iiia
  IC50: 7.05 µM
[35]; snu-387
  IC50: 26.1 µM
[36]; sw1783
  IC50: 23.3 µM
[37]; sw48
  IC50: 9.22 µM
[38]; sw756
  IC50: 9.26 µM
[39]; siha
  IC50: 17 µM
[40]; t98g
  IC50: 141 µM
[41]; a204
  IC50: 64.4 µM
[42]; aspc1
  IC50: 21 µM
[43]; bph-1
  IC50: 17.9 µM
[44]; cal-12t
  IC50: 625 µM
[45]; u-2-os
  IC50: 13.4 µM
[46]; uacc-893
  IC50: 26.1 µM
[47]; umc-11
  IC50: 903 µM
[48]; vm-cub-1
  IC50: 6.3 µM

## Cc1cn(-c2cc(NC(=O)c3ccc(C)c(Nc4nccc(-c5cccnc5)n4)c3)cc(C(F)(F)F)c2)cn1 [NILOTINIB]
[16]; Homo sapiens, COR-L23
  IC50: > 2 µM
[17]; Homo sapiens, CP50-MEL-B
  IC50: > 2 µM
[18]; Homo sapiens, Ca-Ski
  IC50: > 2 µM
[2]; Homo sapiens, D-336MG
  IC50: > 2 µM
[5]; Homo sapiens, EW-22
  IC50: > 2 µM
[19]; Homo sapiens, G-402
  IC50: > 2 µM
[20]; Homo sapiens, HuO-3N1
  IC50: > 2 µM
[21]; Homo sapiens, MDA-MB-157
  IC50: > 2 µM
[22]; Homo sapiens, MDA-MB-231
  IC50: > 2 µM
[23]; Homo sapiens, MFE-280
  IC50: > 2 µM
[24]; Homo sapiens, NCI-H1048
  IC50: > 2 µM
[25]; Homo sapiens, NCI-H1573
  IC50: > 2 µM
[26]; Homo sapiens, NCI-H1651
  IC50: > 2 µM
[27]; Homo sapiens, NCI-H1993
  IC50: > 2 µM
[28]; Homo sapiens, NCI-H2342
  IC50: > 2 µM
[29]; Homo sapiens, OAW-42
  IC50: > 2 µM
[30]; Homo sapiens, OVCAR-8
  IC50: > 2 µM
[31]; Homo sapiens, PANC-08-13
  IC50: > 2 µM
[32]; Homo sapiens, SF-295
  IC50: > 2 µM
[33]; Homo sapiens, SK-HEP1
  IC50: > 2 µM
[34]; Homo sapiens, SKG-IIIa
  IC50: > 2 µM
[35]; Homo sapiens, SNU-387
  IC50: > 2 µM
[36]; Homo sapiens, SW1783
  IC50: > 2 µM
[37]; Homo sapiens, SW48
  IC50: > 2 µM
[38]; Homo sapiens, SW756
  IC50: > 2 µM
[39]; Homo sapiens, SiHa
  IC50: > 2 µM
[40]; Homo sapiens, T98G
  IC50: > 2 µM
[41]; Homo sapiens, A204
  IC50: 1.57 µM
[42]; Homo sapiens, ASPC1
  IC50: > 2 µM
[43]; Homo sapiens, BPH-1
  IC50: > 2 µM
[44]; Homo sapiens, CAL-12T
  IC50: > 2 µM
[45]; Homo sapiens, U2OS
  IC50: > 2 µM
[46]; Homo sapiens, UACC-893
  IC50: > 2 µM
[47]; Homo sapiens, UMC-11
  IC50: > 2 µM
[48]; Homo sapiens, VM-CUB-1
  IC50: > 2 µM
